The nature of data set [1]: Solubility studies of TDL and DPX in nonvolatile solvents and distilled water. The data set is classed as physicochemical. The method, then:
Solubility studies of TDL and DPX were determined in various nonvolatile solvents separately as described previously with full details in the literature (Al-Subaie et al., 2015)(Aldawsari et al., 2018)(El-Say et al., 2019). The solvents used in this study were Span® 80, Tween® 80, PEG 400, PEG 200, Labrasol®, Kolliphor® EL, glycerin and distilled water were used.

For data set [2] the following is noted: DPX, low and variable (El-Say et al., 2019); cited from earlier work.

Structures are written as SMILES. Converted amounts (≈) assume the structure as drawn. Where two headings read alike, the source gives them in different places.

Take `CN(C)[C@@H](CCOc1cccc2ccccc12)c1ccccc1` [DPX, dapoxetine]: the solubility – broadly, how much of the substance goes into solution per volume – in data set [1] (in distilled water, read-out: Solubility of DPX) is 35.6 mg/mL (≈ 117 mM); in data set [1] (oil or lipid, in Labrasol, read-out: Solubility of DPX), 57.7 mg/mL (≈ 189 mM). The oral bioavailability in data set [2] was 15-76%.

As for `CN1CC(=O)N2[C@H](c3ccc4c(c3)OCO4)c3[nH]c4ccccc4c3C[C@@H]2C1=O` [TDL, tadalafil], the solubility in data set [1] (in distilled water, read-out: Solubility of TDL) was determined as 0.049 mg/mL (≈ 0.126 mM); in data set [1] (organic solvent or mixture, in PEG 200, read-out: Solubility of TDL), 10.1 mg/mL (≈ 25.9 mM).

(Values after US10744137B1, “Liquisolid tablet containing combined dose of tadalafil and dapoxetine” (King Abdulaziz University, priority 2020, dated 2020).)
